From US11091472B2, “PI-kinase inhibitors with anti-infective activity” (The Board of Trustees of the Leland Stanford Junior …, priority 2016, dated 2021)
pEC50, pIC50: −log10 of the molar value.

Assays:
Cell toxicity (CC50) = format: cell-based; conditions: human, HuH-7 cells
HCV2a = test: microbe, parasite or virus in culture; format: cell-based, HCV; conditions: Hepatitis C virus, Huh7.5, read-out: HCV2a EC50
HRV = test: Rhinovirus antiviral assay; format: cell-based; conditions: Human rhinovirus sp.
PI3K p110g = PI3K p110g (Homo sapiens (Human), UniProt P48736); test: PI3K p110g kinase assay; format: biochemical; conditions: kinase activity
PI4KIIIB = PI4KIIIB (Bos taurus (Bovine), UniProt O02810); test: PI4KIIIβ kinase assay (immunoprecipitated HA-tagged enzyme, [γ-32P]-ATP); format: biochemical; conditions: kinase activity
PI3K p110a = PI3K p110a (Homo sapiens (Human), UniProt P42336); test: PI3K p110a kinase assay; format: biochemical; conditions: kinase activity
PI4KIIIA = PI4KIIIA (Homo sapiens (Human), UniProt P42356); test: PI4KIIIα kinase assay (immunoprecipitated HA-tagged enzyme, [γ-32P]-ATP); format: biochemical; conditions: kinase activity
PI3KC2B = PI3KC2B (Homo sapiens (Human), UniProt O00750); test: PI3KC2B kinase assay; format: biochemical; conditions: kinase activity
Method: PI-kinase assay: Compounds are tested in C.1.1. PI kinase assays as described by Shokat et al., “A membrane capture assay for lipid kinase activity.” Nat. Protoc. 2007; 2(10):2459-66.
(§1) Selected compounds of Table 1 and 2 were prepared and tested for inhibition activity in a variety of kinase assays.

PI3KC2G = PI3KC2G (Homo sapiens (Human), UniProt O75747); test: PI3KC2G kinase assay; format: biochemical; conditions: kinase activity
Method: PI-kinase assay: Compounds are tested in C.1.1. PI kinase assays as described by Shokat et al., “A membrane capture assay for lipid kinase activity.” Nat. Protoc.
as §1

Chain of PI4KIIIB (O02810 whole entry): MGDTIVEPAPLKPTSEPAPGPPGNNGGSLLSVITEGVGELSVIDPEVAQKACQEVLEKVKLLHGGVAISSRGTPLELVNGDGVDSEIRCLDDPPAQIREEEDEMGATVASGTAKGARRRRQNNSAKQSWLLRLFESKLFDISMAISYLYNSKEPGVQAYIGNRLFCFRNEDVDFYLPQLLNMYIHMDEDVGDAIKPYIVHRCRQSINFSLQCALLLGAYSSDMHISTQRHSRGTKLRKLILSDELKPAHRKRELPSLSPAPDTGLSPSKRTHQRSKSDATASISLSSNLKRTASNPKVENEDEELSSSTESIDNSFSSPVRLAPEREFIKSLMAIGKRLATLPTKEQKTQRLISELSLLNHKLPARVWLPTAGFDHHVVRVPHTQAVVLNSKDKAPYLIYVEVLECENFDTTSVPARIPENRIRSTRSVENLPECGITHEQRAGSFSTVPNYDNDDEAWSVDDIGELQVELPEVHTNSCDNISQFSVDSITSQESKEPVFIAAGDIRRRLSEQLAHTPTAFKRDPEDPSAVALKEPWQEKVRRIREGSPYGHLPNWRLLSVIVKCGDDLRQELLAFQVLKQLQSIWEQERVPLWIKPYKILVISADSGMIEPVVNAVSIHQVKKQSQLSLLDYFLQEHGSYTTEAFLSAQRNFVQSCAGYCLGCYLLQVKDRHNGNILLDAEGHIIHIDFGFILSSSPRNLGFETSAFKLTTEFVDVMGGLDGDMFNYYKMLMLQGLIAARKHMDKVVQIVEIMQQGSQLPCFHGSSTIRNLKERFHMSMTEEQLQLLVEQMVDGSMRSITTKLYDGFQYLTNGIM
Chain of PI3K p110a (P42336 whole entry): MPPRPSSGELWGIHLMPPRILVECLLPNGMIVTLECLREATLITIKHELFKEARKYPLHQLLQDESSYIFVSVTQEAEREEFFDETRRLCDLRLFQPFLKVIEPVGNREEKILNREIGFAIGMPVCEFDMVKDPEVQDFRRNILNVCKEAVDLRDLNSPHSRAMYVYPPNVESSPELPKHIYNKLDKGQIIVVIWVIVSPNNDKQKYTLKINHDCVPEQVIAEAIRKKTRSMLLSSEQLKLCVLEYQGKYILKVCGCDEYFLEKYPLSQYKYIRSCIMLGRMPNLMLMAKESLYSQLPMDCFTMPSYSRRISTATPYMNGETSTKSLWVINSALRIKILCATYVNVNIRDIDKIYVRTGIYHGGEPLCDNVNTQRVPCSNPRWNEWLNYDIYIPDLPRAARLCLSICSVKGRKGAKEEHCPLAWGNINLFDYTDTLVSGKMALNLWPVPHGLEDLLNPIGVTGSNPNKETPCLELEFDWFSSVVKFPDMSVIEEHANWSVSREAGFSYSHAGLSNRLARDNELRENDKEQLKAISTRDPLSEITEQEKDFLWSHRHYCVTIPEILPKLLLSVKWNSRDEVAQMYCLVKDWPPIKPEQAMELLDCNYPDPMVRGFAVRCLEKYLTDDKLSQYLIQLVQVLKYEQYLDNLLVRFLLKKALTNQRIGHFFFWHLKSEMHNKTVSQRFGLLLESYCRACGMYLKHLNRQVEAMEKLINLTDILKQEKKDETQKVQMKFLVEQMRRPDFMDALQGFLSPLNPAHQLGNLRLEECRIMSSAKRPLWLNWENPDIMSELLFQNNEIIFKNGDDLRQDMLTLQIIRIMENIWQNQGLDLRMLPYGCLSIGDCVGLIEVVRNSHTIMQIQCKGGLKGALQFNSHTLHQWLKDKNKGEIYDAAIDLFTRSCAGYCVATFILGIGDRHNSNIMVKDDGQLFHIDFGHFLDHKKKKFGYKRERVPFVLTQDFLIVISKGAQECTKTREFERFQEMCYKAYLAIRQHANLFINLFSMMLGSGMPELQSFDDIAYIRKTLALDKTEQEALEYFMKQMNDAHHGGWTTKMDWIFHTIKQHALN
Chain of PI3K p110a (P27986 whole entry partner): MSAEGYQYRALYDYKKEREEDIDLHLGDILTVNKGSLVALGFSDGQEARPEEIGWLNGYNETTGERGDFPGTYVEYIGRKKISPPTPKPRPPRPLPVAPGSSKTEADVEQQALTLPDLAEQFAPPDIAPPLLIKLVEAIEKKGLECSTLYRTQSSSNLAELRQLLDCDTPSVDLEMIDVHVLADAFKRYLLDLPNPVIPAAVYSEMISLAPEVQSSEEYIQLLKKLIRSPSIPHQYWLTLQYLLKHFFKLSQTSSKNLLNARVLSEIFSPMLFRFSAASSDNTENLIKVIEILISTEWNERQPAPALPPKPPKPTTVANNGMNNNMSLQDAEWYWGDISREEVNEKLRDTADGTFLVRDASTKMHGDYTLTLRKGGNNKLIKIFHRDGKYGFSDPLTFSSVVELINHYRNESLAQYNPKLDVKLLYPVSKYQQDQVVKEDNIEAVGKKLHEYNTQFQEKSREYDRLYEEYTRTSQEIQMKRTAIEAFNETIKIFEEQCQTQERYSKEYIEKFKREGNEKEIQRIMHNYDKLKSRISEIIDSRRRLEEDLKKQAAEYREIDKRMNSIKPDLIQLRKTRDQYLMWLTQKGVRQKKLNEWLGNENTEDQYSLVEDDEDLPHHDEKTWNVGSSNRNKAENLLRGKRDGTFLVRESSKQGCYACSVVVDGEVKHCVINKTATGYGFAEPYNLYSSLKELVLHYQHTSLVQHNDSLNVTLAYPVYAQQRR
Chain of PI3K p110g (P48736 whole entry): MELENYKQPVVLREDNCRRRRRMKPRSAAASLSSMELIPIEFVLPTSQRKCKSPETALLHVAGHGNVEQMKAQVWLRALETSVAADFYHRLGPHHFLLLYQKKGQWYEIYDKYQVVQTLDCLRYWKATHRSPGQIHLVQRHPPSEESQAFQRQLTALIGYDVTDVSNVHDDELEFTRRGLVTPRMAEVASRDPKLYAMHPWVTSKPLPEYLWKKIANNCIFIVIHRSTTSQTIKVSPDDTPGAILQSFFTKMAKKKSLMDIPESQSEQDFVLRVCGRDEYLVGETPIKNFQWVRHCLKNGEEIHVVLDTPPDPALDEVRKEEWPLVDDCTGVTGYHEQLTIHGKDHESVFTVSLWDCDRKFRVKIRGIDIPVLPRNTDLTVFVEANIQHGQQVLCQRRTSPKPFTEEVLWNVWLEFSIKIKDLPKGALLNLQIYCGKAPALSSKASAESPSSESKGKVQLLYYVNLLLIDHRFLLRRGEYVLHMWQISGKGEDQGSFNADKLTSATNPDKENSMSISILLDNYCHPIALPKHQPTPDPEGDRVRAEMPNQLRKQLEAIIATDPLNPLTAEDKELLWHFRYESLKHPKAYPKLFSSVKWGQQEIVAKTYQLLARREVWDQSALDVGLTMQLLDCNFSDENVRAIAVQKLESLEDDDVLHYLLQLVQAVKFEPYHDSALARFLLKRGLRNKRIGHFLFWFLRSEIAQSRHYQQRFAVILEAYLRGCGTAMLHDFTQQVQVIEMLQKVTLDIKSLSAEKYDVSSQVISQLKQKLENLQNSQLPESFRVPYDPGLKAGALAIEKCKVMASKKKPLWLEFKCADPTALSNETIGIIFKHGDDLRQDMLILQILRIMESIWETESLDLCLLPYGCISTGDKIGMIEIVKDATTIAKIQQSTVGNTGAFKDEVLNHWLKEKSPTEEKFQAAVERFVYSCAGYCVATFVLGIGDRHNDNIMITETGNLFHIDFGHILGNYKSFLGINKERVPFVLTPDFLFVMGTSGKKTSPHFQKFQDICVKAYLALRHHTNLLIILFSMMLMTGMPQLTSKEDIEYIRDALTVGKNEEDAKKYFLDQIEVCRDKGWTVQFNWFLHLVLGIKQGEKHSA

SMILES	CC50 (Cell toxicity (CC50))	pEC50 (HCV2a)	pEC50 (HRV)	pIC50 (PI3K p110g)	pIC50 (PI4KIIIB)	pIC50 (PI3K p110a)	pIC50 (PI4KIIIA)	pIC50 (PI3KC2B)	pIC50 (PI3KC2G)
COc1ccc(NS(=O)(=O)c2cc(-c3sc(NC4CCCCC4)nc3C)ccc2OC)c(C)c1 [Compound S-66]	> 10 µM	5.00 to 6.00	> 9.00						
COc1ccc(-c2sc(NCC3CCCCC3)nc2C)cc1S(=O)(=O)NC1CCCNC1 (stereo not drawn) [Compound S-115]	> 10 µM	6.00 to 7.00							
COc1ccc(-c2sc(N[C@H](C)CC3CCCCC3)nc2C)cc1S(=O)(=O)NC1CCNCC1 [Compound S-145]				< 5.00	> 7.00	< 5.00	6.00 to 7.00		
COc1ccc(-c2sc(N[C@H](C)C3CCCCC3)nc2C)cc1S(=O)(=O)NC1CCNCC1 [Compound S-147]				< 5.00	> 7.00	< 5.00	6.00 to 7.00		
COc1ccc(-c2sc(NC(=O)CCC3CCCC3)nc2C)cc1S(=O)(=O)NC1CCNCC1 [Compound S-160]				< 5.00	> 7.00			< 5.00	6.00 to 7.00
COc1ccc(-c2sc(NC(=O)CC3CCOCC3)nc2C)cc1S(=O)(=O)Nc1cc(C)cc(O)c1 [Compound S-169]				< 5.00	> 7.00	< 5.00	> 7.00		< 5.00
COc1ccc(-c2sc(NC(=O)CC3CCOCC3)nc2C)cc1S(=O)(=O)Nc1ccc(F)cc1 [Compound S-170]				< 5.00	> 7.00	< 5.00	> 7.00		< 5.00
COc1ccc(-c2sc(N[C@H](C)C3CCCCC3)nc2C)cc1S(=O)(=O)N[C@H]1CC[C@H](O)CC1 [Compound S-193]					> 7.00			< 5.00	< 5.00
COc1ccc(-c2sc(NC(C)C)nc2C)cc1S(=O)(=O)N[C@H]1CC[C@H](O)CC1 [Compound S-215]				< 5.00	> 7.00		5.00 to 6.00	< 5.00	5.00 to 6.00
COc1ccc(-c2sc(NC(C)(C)C)nc2C)cc1S(=O)(=O)N[C@H]1CC[C@H](O)CC1 [Compound S-216]				< 5.00	> 7.00			< 5.00	5.00 to 6.00
COc1ccc(-c2sc(NC(=O)CC3CCOCC3)nc2C)cc1S(=O)(=O)Nc1ccccc1C [Compound S-228]	> 10 µM								
COc1ccc(-c2sc(NC(=O)CC3CCOCC3)nc2C)cc1S(=O)(=O)Nc1ccc(O)cc1C [Compound S-231]				< 5.00	> 7.00			< 5.00	6.00 to 7.00
COc1ncc(-c2sc(NC(=O)CC3CCOCC3)nc2C)cc1S(=O)(=O)Nc1cccc(O)c1 [Compound S-259]					> 7.00	5.00 to 6.00	> 7.00		5.00 to 6.00
COc1ncc(-c2sc(NC(=O)CC3CCOCC3)nc2C)cc1S(=O)(=O)Nc1ccc(F)cc1F [Compound S-260]	> 10 µM	6.00 to 7.00		< 5.00	> 7.00	< 5.00	> 7.00		< 5.00
COc1ncc(-c2sc(NC(=O)CC3CCOCC3)nc2C)cc1S(=O)(=O)Nc1ccc(O)cc1 [Compound S-261]	> 10 µM	7.00 to 9.00			> 7.00	6.00 to 7.00	> 7.00		6.00 to 7.00
COc1ncc(-c2sc(NC(=O)CC3CCOCC3)nc2C)cc1S(=O)(=O)N[C@H]1CC[C@@H](O)CC1 [Compound S-262]					> 7.00	< 5.00	> 7.00		6.00 to 7.00
COc1ncc(-c2sc(NC(=O)CC3CCOCC3)nc2C)cc1S(=O)(=O)NC1CCCC(O)C1 (stereo not drawn) [Compound S-263]	> 10 µM	7.00 to 9.00							
COc1ncc(-c2sc(NC(=O)CC3CCOCC3)nc2C)cc1S(=O)(=O)Nc1cccc(C(=O)O)c1 [Compound S-265]				< 5.00	> 7.00	< 5.00	> 7.00		5.00 to 6.00
